# According to patent publication US10738028B2, “Spiro three-membered ring, spiro five-membered ring peptide deformylase inhibitor and use thereof in antibacteria and anti-tumor” (priority 2016, dated 2020):
# How the values were obtained:
# Format in all cases: cell-based
# the test strains = assay: MIC against the test strains (strain not given); conditions: read-out: MIC (azole amide bioisosteres)
# Text: 1. The invention adopts the two-fold agar dilution method recommended by the operating procedure of antimicrobial susceptibility testing set by American Clinical and Laboratory Standards Institute (CLSI) to determine the Minimum Inhibitory Concentration (MIC) of the test samples against the tested strains.
# [1] = tested on: Enterococcus faecalis (EFA); assay: MIC, two-fold agar dilution (CLSI), clinical isolates
# How it was run: (§1)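 Susceptibility was tested using CLSI two-fold agar dilution against the strains examined.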
# [2] = tested on: Escherichia coli (including ESBLs, non-ESBLs); assay: as above
# How it was run: as §1
# [3] = tested on: methicillin-sensitive Staphylococcus aureus (MSSA); assay: as above
# How it was run: as §1
# [4] = tested on: Enterococcus faecium (EFM); assay: as above
# How it was run: as §1
# [5] = tested on: methicillin-resistant Staphylococcus aureus (MRSA); assay: as above
# How it was run: as §1
# [6] = tested on: methicillin-resistant Staphylococcus epidermidis (MRSE); assay: as above
# How it was run: as §1
# [7] = tested on: Moraxella catarrhalis (BCA); assay: as above
# How it was run: as §1
# [8] = tested on: methicillin-sensitive Staphylococcus epidermidis (MSSE); assay: as above
# How it was run: as §1
# [9] = tested on: Streptococcus pneoumoniae (SPN); assay: as above
# How it was run: as §1
# [10] = tested on: A549 lung cancer cell line; assay: CCK-8 proliferation inhibition; conditions: Homo sapiens, A549, 72 h, concentration of 30 μM
# How it was run: (§2)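 Plating at 2000 cells/well, then incubation overnight at 37° C. Next, a range of compound concentrations for 72 hours (control 1‰ DMSO). Finally, medium decanted and CCK-8 diluted 1:10 added.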
# [11] = tested on: BEL-7402 liver cancer cell line; assay: CCK-8 proliferation inhibition; conditions: concentration of 30 μM
# How it was run: as §2
# [12] = tested on: MGC-803 gastric cancer cell line; assay: CCK-8 proliferation inhibition; conditions: concentration of 30 μM
# How it was run: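 CCK-8 read-out after 72 h drug exposure; 2000 cells/well, overnight pre-culture (37° C, 5% CO2); vehicle 1‰ DMSO. Media: PC3 F12; MGC-803/Jurkat 1640; MCF-7 DMEM high glucose; all +10% newborn bovine serum, 1% antibiotics.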
# [13] = tested on: HCT-116 colorectal cancer cell line; assay: CCK-8 proliferation inhibition; conditions: concentration of 30 μM, 72 hours, CCK-8
# How it was run: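 2000 cells/well, McCoy's 5A + 10% newborn bovine serum; overnight attach, 37° C./5% CO2. Cpd from DMSO stock diluted in medium, 72 h. Readout: CCK-8 (1:10). Ctrl 1‰ DMSO.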
smiles,measurement,setting,value
"O=C(C[C@@H](CC1CCCC1)C(=O)N1CC2(CC2)C[C@H]1c1nc2ccccc2[nH]1)NO [Example 75, (R)-4-((S)-6-(1H-benzimidazol-2-yl)-5-azaspiro[2.4]heptane-5-yl)-3-(cyclopentylmethyl)-N-hydroxy-4-oxobutanamide]",MIC,the test strains,0.5 to 2 µg/mL
same,Anti-bacterial activity (MIC),[1]; strain EFA 15-1,> 32 µg/mL
same,Anti-bacterial activity (MIC),[1]; strain EFA 15-2,> 32 µg/mL
same,Anti-bacterial activity (MIC),[1]; strain EFA 15-3,> 32 µg/mL
same,Anti-bacterial activity (MIC),[1]; strain EFA 15-4,> 32 µg/mL
same,Anti-bacterial activity (MIC),[1]; strain EFA 15-5,> 32 µg/mL
same,Anti-bacterial activity (MIC),[1]; strain EFA 15-6,> 32 µg/mL
same,Anti-bacterial activity (MIC),[1]; strain EFA 15-9,> 32 µg/mL
same,"Anti-bacterial activity (MIC), strain ECO+ 15-1",[2]; clinical isolate ECO+ 15-1,16 µg/mL
same,"Anti-bacterial activity (MIC), strain ECO+ 15-2",[2]; clinical isolate ECO+ 15-2,32 µg/mL
same,"Anti-bacterial activity (MIC), strain ECO+ 15-3",[2]; clinical isolate ECO+ 15-3,32 µg/mL
same,"Anti-bacterial activity (MIC), strain ECO+ 15-4",[2]; clinical isolate ECO+ 15-4,16 µg/mL
same,"Anti-bacterial activity (MIC), strain ECO− 15-1",[2]; clinical isolate ECO− 15-1,16 µg/mL
same,"Anti-bacterial activity (MIC), strain ECO− 15-2",[2]; clinical isolate ECO− 15-2,32 µg/mL
same,"Anti-bacterial activity (MIC), strain ECO− 15-3",[2]; clinical isolate ECO− 15-3,32 µg/mL
same,"Anti-bacterial activity (MIC), strain ECO− 15-4",[2]; clinical isolate ECO− 15-4,32 µg/mL
same,"Anti-bacterial activity (MIC), strain MSSA 15-3",[3]; clinical isolate MSSA 15-3,2 µg/mL
same,"Anti-bacterial activity (MIC), strain MSSA 15-4",[3]; clinical isolate MSSA 15-4,0.5 µg/mL
same,"Anti-bacterial activity (MIC), strain MSSA 15-5",[3]; clinical isolate MSSA 15-5,0.5 µg/mL
same,"Anti-bacterial activity (MIC), strain MSSA 15-6",[3]; clinical isolate MSSA 15-6,16 µg/mL
same,Anti-bacterial activity (MIC),[4]; strain EFM 15-1,> 32 µg/mL
same,Anti-bacterial activity (MIC),[4]; strain EFM 15-2,> 32 µg/mL
same,Anti-bacterial activity (MIC),[4]; strain EFM 15-3,> 32 µg/mL
same,Anti-bacterial activity (MIC),[4]; strain EFM 15-4,2 µg/mL
same,Anti-bacterial activity (MIC),[4]; strain EFM 15-5,2 µg/mL
same,Anti-bacterial activity (MIC),[4]; strain EFM 15-6,2 µg/mL
same,"Anti-bacterial activity (MIC), strain MRSA 15-1",[5]; clinical isolate MRSA 15-1,1 µg/mL
same,"Anti-bacterial activity (MIC), strain MRSA 15-2",[5]; clinical isolate MRSA 15-2,2 µg/mL
same,"Anti-bacterial activity (MIC), strain MRSA 15-3",[5]; clinical isolate MRSA 15-3,1 µg/mL
same,"Anti-bacterial activity (MIC), strain MRSA 15-4",[5]; clinical isolate MRSA 15-4,1 µg/mL
same,"Anti-bacterial activity (MIC), strain MRSE 15-1",[6]; clinical isolate MRSE 15-1,1 µg/mL
same,"Anti-bacterial activity (MIC), strain MRSE 15-2",[6]; clinical isolate MRSE 15-2,2 µg/mL
same,"Anti-bacterial activity (MIC), strain MRSE 15-3",[6]; clinical isolate MRSE 15-3,4 µg/mL
same,"Anti-bacterial activity (MIC), strain MRSE 15-7",[6]; clinical isolate MRSE 15-7,4 µg/mL
same,Anti-bacterial activity (MIC),[7]; strain BCA 14-1,4 µg/mL
same,Anti-bacterial activity (MIC),[7]; strain BCA 14-4,8 µg/mL
same,Anti-bacterial activity (MIC),[7]; strain BCA 14-5,2 µg/mL
same,Anti-bacterial activity (MIC),[7]; strain BCA 14-6,8 µg/mL
same,Anti-bacterial activity (MIC),[7]; strain BCA 14-7,4 µg/mL
same,Anti-bacterial activity (MIC),[7]; strain BCA 14-8,4 µg/mL
same,Anti-bacterial activity (MIC),[7]; strain BCA 14-10,2 µg/mL
same,"Anti-bacterial activity (MIC), strain MSSE 15-3",[8]; clinical isolate MSSE 15-3,1 µg/mL
same,"Anti-bacterial activity (MIC), strain MSSE 15-4",[8]; clinical isolate MSSE 15-4,1 µg/mL
same,"Anti-bacterial activity (MIC), strain MSSE 15-5",[8]; clinical isolate MSSE 15-5,1 µg/mL
same,"Anti-bacterial activity (MIC), strain MSSE 15-6",[8]; clinical isolate MSSE 15-6,0.5 µg/mL
same,Anti-bacterial activity (MIC),[9]; strain SPN 16-2,1 µg/mL
same,Anti-bacterial activity (MIC),[9]; strain SPN 16-4,0.5 µg/mL
same,inhibition at 30 µM,[10],45%
same,inhibition at 30 µM,"[11]; Homo sapiens, Bel-7402, 72 h",> 50%
same,"Inhibition of proliferation, Liver cancer BEL-7402","[11]; 72 hours, 30 µM",70%
same,inhibition at 30 µM,"[12]; Homo sapiens, MGC-803, 72 h",> 50%
same,"Inhibition of proliferation, Gastric cancer MGC-803","[12]; 72 hours, 30 µM",51%
same,inhibition at 30 µM,"[13]; Homo sapiens, HCT-116, 72 h, read-out: HCT116 inhibition rate/%",> 50%
same,HCT116 inhibition rate/%,[13]; 30 µM,59%
